According to paper PMC7277860, “Viridistratins A−C, Antimicrobial and Cytotoxic Benzo[j]fluoranthenes from Stromata of Annulohypoxylon viridistratum (Hypoxylaceae, Ascomycota)” (Biomolecules, 2020):

Assay: Cytotoxicity assay (MTT)
Type: cell-based, human
Conditions: for IC50: 5 days
Method: Compounds 1−5 were dissolved as described in the previous section. The cytotoxicity assay was initially performed against the cell lines L929 (mouse fibroblasts), as well as KB 3.1 (human papillomavirus-related endocervical adenocarcinoma), as described previously. A detailed protocol, as well as sources of the cell lines, is given in the Supporting Information.
After incubating the cell lines with a serial dilution of the test compounds (final range: 37 to 0.6 × 10^−3 µg/mL) for five days, the cells were dyed using 3-(4,5-dimethyl-2-thiazolyl)-2,5-diphenyl-2H-tetrazolium bromide (MTT), which is only converted to its purple formazan derivative by living cells. Then, the intensity of the purple derivative in relation to cells without additive (set to 100% viability) for each concentration of a test compound was quantified. For this, the absorption at 595 nm was measured using a microplate reader to calculate the percentage of cell viability. From this, the half-maximum inhibitory concentration (IC50, in µM) was calculated.
If an inhibition of cell viability with an IC50 < 50 µM was observed, further cell lines were subjected to the test compounds: PC-3 (human prostate adenocarcinoma), SK-OV-3 (human ovary adenocarcinoma), MCF-7 (human breast adenocarcinoma), A431 (human squamous carcinoma) and A549 (human lung carcinoma).
Protocol: Cytotoxicity Assay
The ass ay w as co nducted i n 9 6-well flat-bottom mi crotiter plates using the parameters summarised i n Tabl e S 2 and as described in [S2].
Cell lines L929 and KB 3.1 were incubated at 37 °C under 10 % CO2 in Gibco™ DMEM medium (Thermo Fisher Scientific, Waltham, MA, USA) supplemented with 10 % FBS. A microtiter plate was filled with 120 µL of this suspension (50,000/mL) in each well.
Seperately, another microtiter plate was filled with 100 µL of growth medium in each well. Then, 50 µL of the test compound sol utions (1 mg/mL) were given to wells of the first column in two replicates (one compound per row). C ell s wi thout addi ti ves, Me O H, and MeOH: DMSO 9+1 were used as negative controls. Starting from the first column, 50 µL of the solutions were gradually transferred to the ne xt col umn, the conte nts thoroughl y mi xed, and 50 µ L transferred to the following column. This created a serial dilution of the test compounds r anging from 333 µg/mL to 1.9 ×10−3 µg/mL. The remai ni ng 50 µL after column twelve were discarded. From this microtiter plate, 60 µL of the sol utions from 111 µg/ mL to 1.9×10−3 µg/mL were given to the first plate containing 120 µL of the cel l suspens i ons (i.e. the hi ghest concentrati on 333 µg/mL was not used). T his resulted i n fi nal compound concent rati ons rangi ng from […]
After 5 days of incubation under the aforeme ntioned i ncubati on condi ti ons, the half maximum inhibitory concentrati ons (IC 50) were determined using a colorimetric tetrazolium dye MTT assay [S3].
For this, 20 µL of a 5 mg/mL solution of 3-( 4 ,5 -dimethyl-2-thi azo l yl)-2 ,5 -di phenyl -2H-tetrazolium bromide (MTT) w ere added to each well and incubated for two hours at 37 °C. Then, the microtiter plate was centrifuged (3,000 r p m, 5 mi n) and the supernat ant remo ved by ho l di ng the pl ate upsi de-do wn and gentle shaking. Afterwards, the wells were washed using 100 µL of phosph ate buffered saline (PBS).
The plate was again centrifuged and the supernatant removed as described before. Then, 100 µL of an isopropanol:HCl solution (1L i sopropanol+4 mL HCl 37 % w/v) were added to the wells. After i ncubati ng fo r 10 mi n at ambi ent te mperature, the a bso r pti o n of the well s at 595 nm was measured wi th an I nfi ni te ® 200 Pro microplate reader (TECAN, Männedorf, Schweiz).
The absorption values of the cells without additives were averaged and set to 100 % cell viability.
Then, t he me ans of absorption of the two compound replicates were set in relation to the blank media.
These percentage values were plotted a gainst the concentration range (37 µg/mL to 0.6×10 −3 µg/mL). […]

[1] = A431 human squamous carcinoma cells, A431 human squamous AC
[2] = A549 human lung carcinoma cells, A549 human lung carcinoma
[3] = MCF-7 human breast adenocarcinoma cells, MCF-7 human breast AC
[4] = PC-3 human prostate adenocarcinoma cells, PC-3 human prostate AC
[5] = SK-OV-3 human ovary adenocarcinoma cells, SK-OV-3 human ovary AC

SMILES | IC50 at 5 days [1] [µM] | IC50 at 5 days [2] [µM] | IC50 at 5 days [3] [µM] | IC50 at 5 days [4] [µM] | IC50 at 5 days [5] [µM] | IC50 (A431 human squamous AC) [µM] | IC50 (A549 human lung carcinoma) [µM] | IC50 (MCF-7 human breast AC) [µM] | IC50 (PC-3 human prostate AC) [µM] | IC50 (SK-OV-3 human ovary AC) [µM]
COc1cccc2c3c(ccc12)-c1ccc(O)c2c(O)ccc-3c12 [Compound 2, viridistratin B] | 1.1 | 1.4 | 5.1 | 9.9 | 7.3 |  |  |  |  | 
Oc1cccc2c3c(ccc12)-c1ccc(O)c2c(O)ccc-3c12 [Compound 1, viridistratin A] | 8.7 | 20 | 9.7 | 23.7 | 56.7 |  |  |  |  | 
O=C1CCC(=O)c2c1c(O)cc1c2-c2ccc(O)c3c(O)ccc-1c23 [Compound 5, truncatone C] | 16.3 | 27.1 | 7.8 | 25.6 | 33.1 |  |  |  |  | 
O=C1C[C@H]2C(=C3CCC(=O)c4c(O)ccc2c43)c2cccc(O)c21 [Compound 4, truncatone A] |  |  |  |  |  | 5.7 | 17 | 8.8 | 44 | 66
